Assay results taken from publication PMC11141866, “Pyrimidine depletion enhances targeted and immune therapy combinations in acute myeloid leukemia” (JCI Insight, 2024).
Values joined by “and” are separate entries in the source; they are usually repeats but may differ in a detail not shown here. Identical values can stand only once.

How the values were obtained:
[1] = test system: MOLM-13; assay: MTS proliferation assay, MOLM-13; format: cell-based; settings: Homo sapiens, MOLM-13, 96 h, read-out: IC50 (MTS proliferation)
Protocol: (§1) A total of 10,000–20,000 cells from different AML lines or 50,000–75,000 cells of primary AML blasts were treated in a 96-well plate for 72 hours or 96 hours at 37°C, 5% CO2. CellTiter 96 Aqueous MTS reagent (Promega) was added to cells followed by a 3-hour incubation at 37°C, 5% CO2. The absorbance was measured at 490 nm using DTX 880 plate reader, and the IC50 was calculated using GraphPad Prism.

[2] = test system: OCI-AML3; assay: MTS proliferation assay, OCI-AML3; format: cell-based; settings: Homo sapiens, OCI-AML-3, 96 h, read-out: IC50 (MTS proliferation)
Protocol: as §1

[3] = test system: THP1; assay: MTS proliferation assay, THP1; format: cell-based; settings: Homo sapiens, THP-1, 96 h, read-out: IC50 (MTS proliferation)
Protocol: as §1

[4] = test system: U937; assay: MTS proliferation assay, U937; format: cell-based; settings: Homo sapiens, U-937, 96 h, read-out: IC50 (MTS proliferation)
Protocol: as §1

[5] = test system: Kasumi; assay: MTS proliferation assay, Kasumi; format: cell-based; settings: Homo sapiens, 96 h, read-out: IC50 (MTS proliferation)
Protocol: as §1

[6] = test system: primary AML patient samples; assay: Flow cytometry viability, primary AML long-term culture; format: cell-based, human; settings: 500nM
Protocol: (§2) Cells were thawed in 50% FBS RPMI and then cultured in StemSpan (StemCell Technologies) media supplemented with human FLT3L, SCF, GM-CSF, G-CSF, IL-3, IL-6, TPO, and EPO cytokines for 7 days (LTC).
(§3) After 72 hours or 7 days of treatment of DHODHi, cells were collected and washed with PBS, blocked with human Fc block (BioLegend), and stained with antibodies for 30 minutes on ice. Antibodies were washed off and cells resuspended in FACS buffer (2% FBS, 2 mM NaN3, Dulbecco’s PBS) for analysis using BD LSRFortessa or Cytek Aurora spectral flow cytometer. Live/dead exclusion was done using LIVE/DEAD Fixable Near-IR (Invitrogen). All antibodies were purchased from BioLegend except CD47, which was purchased from BD Biosciences: CD11b clone M1/70, CD38 clone HIT2, CD14 clone M5E2, CD47 clone B6H12, CD33 clone WM53, CD3 clone UCHT1, CD19 clone HIB19, and CD45 clone HI30.
Supplemental Figure S.2. […] A).
Flow cytometry analysis of viable primary AML patient samples (n=10) treated in vitro for seven days
(long term culture, LTC). […]

[7] = test system: primary AML samples; assay: Flow cytometry CD38 surface expression, primary AML samples; format: cell-based, human; settings: 500nM
Protocol: as §2, §3

[8] = test system: primary AML patient samples; assay: Flow cytometry CD47 surface expression, primary AML samples; format: cell-based, human; settings: 500nM
Protocol: as §2, §3
Supplemental Figure S.8. DHODHi modulates CD47 surface antigen expression. A) Representative flow cytometry overlay histogram plot for CD47 surface expression in MV4-11 cell line following a 72- […]
supplementation (experiment was done five independent times). B) Flow cytometry analysis of CD47 surface expression in primary AML patient samples (n=8-10) treated in vitro for seven days (long term culture, LTC). Data is shown as mean florescent intensity (MFI) of CD47 gated on live CD45+CD3-CD19- cells, error bars indicate mean with 95% confidence interval. C) Representative flow cytometry […]
modulation of CD47 post DHODHi treatment.
(1 picture or pasted object on this page, not shown here)

[9] = test system: HL-60 disseminated CDX model; assay: HL-60 CDX synergy with decitabine; format: in vivo, NCG mice; settings: Decitabine 0.4 mpk IP (4on/10off), HOSU53 10 mpk p.o. qd, or both; flag 0 = censored at day 82
Protocol: Female 8- to 12-week-old female NCG mice were engrafted with 1 × 10^7 cells via tail vein i.v. injection. At 14 days after engraftment (day 1 of treatment), mice (n = 10/arm) were randomized to receive p.o. qd and i.p. vehicle (p.o. qd 40% HPβCD and 4 on/10 off i.p. PBS), 10 mg/kg HOSU-53, i.p. 0.4 mg/kg decitabine on a 4-day on/10-day off cycle, or their combination till moribundity or end of study day 82.

`Cc1c(-c2ccc(-c3ccccc3F)cc2)nc2ccc(F)cc2c1C(=O)O` [BRQ, brequinar] gave an IC50 [1] of 378 nM, an IC50 [2] of 483 nM and an IC50 [3] of 899 nM. For the same compound, the IC50 [4] was 2000 nM, the IC50 [5] was 1180 nM and the “% Live (Near-IR negative)” value ([6]; Pt.13, DMSO 72.92) was 74.35%. For the same compound, the “% Live (Near-IR negative)” value ([6]; Pt.14, DMSO 68.39) was 69.22%, the “% Live (Near-IR negative)” value ([6]; Pt.15, DMSO 61.7) was 34.7% and the “% Live (Near-IR negative)” value ([6]; Pt.16, DMSO 45.99) was 44.41%. The “% Live (Near-IR negative)” value ([6]; Pt.17, DMSO 29.84) was 27.99%, the “% Live (Near-IR negative)” value ([6]; Pt.18, DMSO 29.72) was 24.94% and the “% Live (Near-IR negative)” value ([6]; Pt.19, DMSO 75.66) was 72.29%. For the same compound, the “% Live (Near-IR negative)” value ([6]; Pt.20, DMSO 67.67) was 44.18%, the “CD38 MFI” value ([7]; Pt.13, DMSO 803.93) was 685.5 and the “CD38 MFI” value ([7]; Pt.14, DMSO 15.61) was 20.07. For the same compound, the “CD38 MFI” value ([7]; Pt.15, DMSO 168) was 776.17, the “CD38 MFI” value ([7]; Pt.16, DMSO 274.9) was 196.87 and the “CD38 MFI” value ([7]; Pt.17, DMSO 1637.55) was 2098.18. For the same compound, the “CD38 MFI” value ([7]; Pt.18, DMSO 74.26) was 85.41, the “CD38 MFI” value ([7]; Pt.19, DMSO 997.1) was 1760 and the “CD38 MFI” value ([7]; Pt.20, DMSO 193.57) was 223.42. For the same compound, the “CD47 MFI” value ([8]; Pt.13, DMSO 1665.27) was 1311.31, the “CD47 MFI” value ([8]; Pt.14, DMSO 585.79) was 845.1 and the “CD47 MFI” value ([8]; Pt.15, DMSO 1002.16) was 847.29. For the same compound, the “CD47 MFI” value ([8]; Pt.16, DMSO 1349.33) was 1999.15, the “CD47 MFI” value ([8]; Pt.17, DMSO 334.61) was 370.44 and the “CD47 MFI” value ([8]; Pt.18, DMSO 869.17) was 1024.38. The “CD47 MFI” value ([8]; Pt.19, DMSO 364.4) was 470.75 and the “CD47 MFI” value ([8]; Pt.20, DMSO 398.54) was 499.32.
For `Nc1ncn([C@H]2C[C@H](O)[C@@H](CO)O2)c(=O)n1` [Decitabine, decitabine, reference compound], the “Survival, day of study at event (per animal)” value [9] was 40 days and 41 days and 43 days and 45 days and 47 days.
